This note sets out measurements from patent publication US7867979B2, “Drug composition for treating 2 type diabetes and diabetic chronicity complications” (Hainan Deze Drug Research Co., Ltd., priority 2006, dated 2011).

Where two headings read alike, the source gives them in different places.

A short description of data set [1]: Pharmacokinetics of the composition after oral administration. In kind it is in vivo. The note with it: rats, serum; for AUC(0-inf) / Cmax: rat. On the procedure:
Mangiferin is suspended in 1% carboxymethyl cellulose sodium solution, the concentration of mangiferin is 25 mg/mL (Sample A).
Berberine is suspended in 1% carboxymethyl cellulose sodium solution, the concentration of berberine is 25 mg/mL (Sample B). The composition which is composed of mangiferin and berberine in the ratio of 1:4 is suspended in 1% carboxymethyl cellulose sodium solution, the concentration of the composition is 50 mg/mL (Sample C).
All rats were fasted for 16 hours and drunk water freely. The rats are oral administrated respectively sample A (40 mg/kg), sample B (160 mg/kg) and sample C (200 mg/kg). From the rats, 0.4 ml blood samples were taken respectively at the time of 5 minutes before oral administrated and 0 h, 1 h, 2 h, 3 h, 4 h, 5 h, 6 h, 8 h, 10 h, 12 h, 15 h, and 24 h after oral administrated. These blood samples were put into centrifuge tube containing heparin, then were centrifuged for 10 minutes, the serum is obtained.
Serum samples are taken accurately 100 μL into centrifuge tubes, then 400 μL acetonitrile-acetic acid (9:1) is added into centrifuge tubes. The samples are whorled for 1.5 minutes, and then the samples are centrifuged 3000 r/min for 10 minutes. The supernatant was put into clear tube, dried by nitrogen, 100 μL mobile phase were put into the remnants, whorled for 1.5 minutes, then centrifuged 3000 r/min for 10 minutes. The Supernatant was put into sample bottle. All the samples are determined by HPLC. Injection volume is 20 μL.
4.1 Apparatus: Angilent 1100 HPLC (American Agilent Co.): include G1312A dual pump and G1313A Auto-Sampler.
Chromatographic column: discover ODS column (250 mm×6 mm, 5 μm);
The mobile phase: methanol-0.1% H3PO4 water.
Velocity of flow: 1.0 ml/min.
Detection Wavelength: 264 nm.

For data set [2], the system named is Superoxidedismutase (SOD). Nature of the data set: Superoxidedismutase (SOD) in kidney tissue homogenate of GK rats. As to conditions: oral daily 12 weeks. In kind it is in vivo, Goto-Kakizaki rats (GK). On the procedure: GK rats control group (n=10); mangiferin groups (10, 30, 200 mg/kg, each group 10 rats); berberine groups (10, 20, 150 mg/kg, each group 10 rats); composition group 1[[mangiferin (10 mg/kg)+berberine (10 mg/kg)], 10 rats]; composition group 2[[mangiferin (200 mg/kg)+berberine (150 mg/kg)], 10 rats]. Wistar rats are normal control group (10 rats). GK rats control group and Wistar rats group were given saline. The other groups were given test drugs. Test samples were administrated orally at the same time every day for 12 weeks. 3.3.1 Preparation of tissue homogenate: Rats were killed by femoral artery bloodletting after administration of the rats for 12-weeks. Kidney tissue of the rats were taken, the blood of kidney tissue were washed with cooling saline (4° C.), then the remnant water was absorbed with filter paper, the kidney tissue was weighed. Per gram kidney tissue was added into 10 ml saline, which was put in homogenized machine (10,000 r/min, 10 seconds, 3rd), 10% tissue homogenate was prepared, the tissue homogenate was centrifuged (4000 r/min) for 10 minutes to get supernatant, the supernatant was saved in −20° C. for determination. […] SOD is determined by Xanthine Oxidase calorimetric analysis, the test box was bought from Nanjing Jiancheng Bioengineering Research Institute. […] The results have been calculated as mean±SD ( x±SD) and the comparisons of the data have been done by t-test. There are ten rats in every group. GK rats control group and wistar rats group were given saline. The other groups were given test drugs. Test samples were administrated orally at the same time every day for 12 weeks. The measurements are as same as the above experiment.

The subject of another data set is diabetic GK rats. Nature of the data set: Blood glucose and lipid in GK rats. In kind it is in vivo, Goto-Kakizaki rats (GK). As to conditions: oral daily 12 weeks; for GLU / Lipid TC / Lipid TG: GK rats, high fat diet. An excerpt: The GK (Goto-Kakizaki) rat is the spontaneous model of diabetes, the pathogenesis of GK rat is very similar to the pathogenesis of type 2 diabetes. After diabetes attack, hyperglycemia and insulin secretion weakened emerge rapidly, the latter diseases may be complicated by retinopathy, micro-vascular disease, neuropathy, nephropathy in GK rat. The GK rats have been widely used in type 2 diabetes study, so we choose GK rat as the animal model of the following experiment. […] Then they can be mixed or diluted in accordance with the dose and the ratio. 1.3 Goto-Kakizaki rats (GK) (4 months age, ♀♂) and Wistar rats (SPF level, ♀♂) were purchased from Shanghai SLAC laboratory animal Co., Ltd. In addition to the normal rats, the other rats were fed with high fat diet (20% protein and 3.5% cholesterol). After the rats was feeding adaptation for one week, The GK rats which the blood glucose level was more than 11.1 mmol/L were selected, and then divided into the following groups random: GK rats control group (n=10); mangiferin groups (10, 30, 200 mg/kg, each group 10 rats); berberine groups (10, 20, 150 mg/kg, each group 10 rats); composition group 1[[mangiferin (10 mg/kg)+berberine (10 mg/kg)], 10 rats]; composition group 2[[mangiferin (200 mg/kg)+berberine (150 mg/kg)], 10 rats]. Wistar rats are normal control group (10 rats). GK rats control group and Wistar rats group were given saline. The other groups were given test drugs. Test samples were administrated orally at the same time every day for 12 weeks. 3.1 Blood Glucose and lipid: The blood specimens were taken at the end of the test. Plasma glucose (GLU), triglycerides (TG), total cholesterol (TC) were determined by HITACHI7080 automatic biochemistry analyzer. […] The results have been calculated as mean±SD ( x±SD) and the comparisons of the data have been done by t-test. […] Mangiferin and berberine are prepared in accordance with the method of preparation of example 1 and 2. Then they can be mixed in accordance with the dose and the ratio such as table 3. 1.2 Animal: Goto-Kakizaki rats (GK) (4 months age, ♀♂) and Wistar rats (SPF level, ♀♂) were purchased from Shanghai SLAC laboratory animal Co., Ltd. In addition to the normal rats, the other rats were fed with high fat diet (20% protein and 3.5% cholesterol). After the rats was feeding adaptation for one week, GK rats that the blood glucose level of the GK rats was more than 11.1 mmol/L were selected, and then random divided into the following groups as follows (Table 3): There are ten rats in every group. GK rats control group and wistar rats group were given saline. The other groups were given test drugs. Test samples were administrated orally at the same time every day for 12 weeks. The measurements are as same as the above experiment.

[3] abbreviates: 30 mg/kg mangiferin, 20 mg/kg berberine.

With `COc1ccc2cc3[n+](cc2c1OC)CCc1cc2c(cc1-3)OCO2` [Berberine], the AUC(0-inf) in data set [1] (sample B 160 mg/kg or sample C (1:4) 200 mg/kg, read-out: AUC0-∞ of berberine) came out at 3440 ± 250 µg·h/mL. In addition, the Cmax in data set [1] (sample B 160 mg/kg or sample C (1:4) 200 mg/kg, read-out: Cmax of berberine) turned out to be 54100 ± 2600 ng/mL. The same compound returned a T1/2β of berberine in data set [1] (sample B 160 mg/kg or sample C (1:4) 200 mg/kg) of 3.5 ± 0.3 h. The “Measurements about oxidation SOD” value worked out at 131.56 ± 23.49 U/mg pro in data set [2] (10 mg/kg), 170.04 ± 13.49 U/mg pro in data set [2] (20 mg/kg) and 195.10 ± 13.71 U/mg pro in data set [2] (150 mg/kg). Further, the “Improvement of GLU, TC, TG, AR, MDA, SOD in diabetic GK rats” value in the data set with diabetic GK rats (10 mg/kg) is recorded as “do not significantly improve”; in the data set with diabetic GK rats (setting [3]), “improves”. Further, the figures for the GLU in the data set with diabetic GK rats (10 mg/kg), in the data set with diabetic GK rats (20 mg/kg) and in the data set on diabetic GK rats (150 mg/kg) were 21.24 ± 3.13 mmol/L, 12.29 ± 2.76 mmol/L and 9.11 ± 2.08 mmol/L, respectively. In addition, the “Lipid TC” value with diabetic GK rats (10 mg/kg) stood at 4.53 ± 1.28 mmol/L; in the data set with diabetic GK rats (20 mg/kg) it was 3.27 ± 0.24 mmol/L; with diabetic GK rats (150 mg/kg), 3.01 ± 0.28 mmol/L. The “Lipid TG” value in the data set with diabetic GK rats (10 mg/kg) was determined as 3.49 ± 0.68 mmol/L; in the data set with diabetic GK rats (20 mg/kg), 2.79 ± 0.24 mmol/L; in the data set on diabetic GK rats (150 mg/kg), 1.80 ± 0.19 mmol/L.

Regarding `O=c1c2cc(O)c(O)cc2oc2cc(O)c([C@@H]3O[C@H](CO)[C@@H](O)[C@H](O)[C@H]3O)c(O)c12` [Mangiferin], the AUC(0-inf) in data set [1] (sample A 40 mg/kg or sample C (1:4) 200 mg/kg, read-out: AUC0-∞ of mangiferin) turned out to be 1200 ± 391 µg·h/mL. Besides, the Cmax in data set [1] (sample A 40 mg/kg or sample C (1:4) 200 mg/kg, read-out: Cmax of mangiferin) is 18600 ± 1500 ng/mL. This compound also returned a T1/2β of mangiferin in data set [1] (sample A 40 mg/kg or sample C (1:4) 200 mg/kg) of 4.3 ± 0.4 h. Moreover, the results for the “Measurements about oxidation SOD” value in data set [2] (10 mg/kg), in data set [2] (30 mg/kg) and in data set [2] (200 mg/kg) were 130.74 ± 23.47 U/mg pro, 168.23 ± 13.46 U/mg pro and 194.15 ± 13.55 U/mg pro, respectively. Besides, the “Improvement of GLU, TC, TG, AR, MDA, SOD in diabetic GK rats” value is reported as “do not significantly improve” in the data set with diabetic GK rats (10 mg/kg) and “improves” in the data set on diabetic GK rats (setting [3]). Also, the values for the GLU in the data set on diabetic GK rats (10 mg/kg), with diabetic GK rats (30 mg/kg) and in the data set on diabetic GK rats (200 mg/kg) were 20.75 ± 3.39 mmol/L, 13.05 ± 2.23 mmol/L and 9.05 ± 2.04 mmol/L, respectively. Besides, the figures for the “Lipid TC” value in the data set with diabetic GK rats (10 mg/kg), in the data set on diabetic GK rats (30 mg/kg) and in the data set with diabetic GK rats (200 mg/kg) were 4.48 ± 1.53 mmol/L, 3.16 ± 0.32 mmol/L and 3.06 ± 0.29 mmol/L, respectively. Moreover, the entries for the “Lipid TG” value with diabetic GK rats (10 mg/kg), in the data set on diabetic GK rats (30 mg/kg) and with diabetic GK rats (200 mg/kg) were 3.62 ± 0.41 mmol/L, 2.82 ± 0.22 mmol/L and 1.82 ± 0.32 mmol/L, respectively.

The term Cmax denotes the peak of the concentration-time curve.
